# Measurements as given in ChEMBL document CHEMBL1150976, “The selectivity of protein kinase inhibitors: a further update” (Biochem J, 2007).
# What was measured:
# [1] = target: Cyclin-dependent kinase 2/cyclin A (Homo sapiens, UniProt P24941); assay: Inhibition of CDK2-cyclinA in the presence of 20uM ATP; type: protein-complex assay
# [2] = target: T1, Inhibitor of nuclear factor kappa-B kinase subunit beta (Homo sapiens) (UniProt O14920); assay: Percentage IKK-beta activity remaining in the presence of 3uM inhibitor
# T1 sequence (whole entry): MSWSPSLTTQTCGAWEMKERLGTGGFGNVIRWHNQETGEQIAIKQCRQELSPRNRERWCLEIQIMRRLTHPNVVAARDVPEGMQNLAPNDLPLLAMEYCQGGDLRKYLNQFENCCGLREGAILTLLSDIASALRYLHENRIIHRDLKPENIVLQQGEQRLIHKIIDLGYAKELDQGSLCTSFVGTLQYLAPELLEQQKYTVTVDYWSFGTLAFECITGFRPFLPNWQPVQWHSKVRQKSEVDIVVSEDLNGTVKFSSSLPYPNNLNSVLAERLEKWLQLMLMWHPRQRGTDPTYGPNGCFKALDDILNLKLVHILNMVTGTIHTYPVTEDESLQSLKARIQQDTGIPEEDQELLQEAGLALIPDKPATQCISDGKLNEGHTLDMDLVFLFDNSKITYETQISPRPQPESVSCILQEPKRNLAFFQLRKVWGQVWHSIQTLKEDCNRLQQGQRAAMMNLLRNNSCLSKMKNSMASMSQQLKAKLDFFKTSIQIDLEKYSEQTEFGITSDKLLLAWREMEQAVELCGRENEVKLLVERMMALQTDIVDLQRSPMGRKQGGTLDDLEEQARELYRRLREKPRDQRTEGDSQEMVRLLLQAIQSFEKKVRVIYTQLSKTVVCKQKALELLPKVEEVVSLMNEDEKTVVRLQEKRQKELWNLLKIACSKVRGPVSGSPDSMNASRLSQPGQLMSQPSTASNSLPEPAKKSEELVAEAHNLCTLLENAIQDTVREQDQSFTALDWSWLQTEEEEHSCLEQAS
# [3] = target: Serine/threonine-protein kinase Nek7 (Homo sapiens) (UniProt Q8TDX7); assay: Percentage NEK7 activity remaining in the presence of 3uM inhibitor
# Sequence of Serine/threonine-protein kinase Nek7 (Homo sapiens) (Q8TDX7 whole entry, looked up): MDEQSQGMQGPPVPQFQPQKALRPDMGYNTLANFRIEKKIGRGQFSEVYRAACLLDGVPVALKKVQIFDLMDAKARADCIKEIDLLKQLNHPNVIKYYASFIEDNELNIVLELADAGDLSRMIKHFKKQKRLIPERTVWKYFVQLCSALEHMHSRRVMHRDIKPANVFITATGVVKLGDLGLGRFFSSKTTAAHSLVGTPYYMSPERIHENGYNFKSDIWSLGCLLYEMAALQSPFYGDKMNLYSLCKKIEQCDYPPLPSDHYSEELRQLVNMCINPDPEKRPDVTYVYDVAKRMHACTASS
# [4] = target: T2, Serine/threonine-protein kinase BRSK2 (Homo sapiens) (UniProt Q8IWQ3); assay: Percentage BRSK2 activity remaining in the presence of 2uM inhibitor
# T2 sequence (whole entry): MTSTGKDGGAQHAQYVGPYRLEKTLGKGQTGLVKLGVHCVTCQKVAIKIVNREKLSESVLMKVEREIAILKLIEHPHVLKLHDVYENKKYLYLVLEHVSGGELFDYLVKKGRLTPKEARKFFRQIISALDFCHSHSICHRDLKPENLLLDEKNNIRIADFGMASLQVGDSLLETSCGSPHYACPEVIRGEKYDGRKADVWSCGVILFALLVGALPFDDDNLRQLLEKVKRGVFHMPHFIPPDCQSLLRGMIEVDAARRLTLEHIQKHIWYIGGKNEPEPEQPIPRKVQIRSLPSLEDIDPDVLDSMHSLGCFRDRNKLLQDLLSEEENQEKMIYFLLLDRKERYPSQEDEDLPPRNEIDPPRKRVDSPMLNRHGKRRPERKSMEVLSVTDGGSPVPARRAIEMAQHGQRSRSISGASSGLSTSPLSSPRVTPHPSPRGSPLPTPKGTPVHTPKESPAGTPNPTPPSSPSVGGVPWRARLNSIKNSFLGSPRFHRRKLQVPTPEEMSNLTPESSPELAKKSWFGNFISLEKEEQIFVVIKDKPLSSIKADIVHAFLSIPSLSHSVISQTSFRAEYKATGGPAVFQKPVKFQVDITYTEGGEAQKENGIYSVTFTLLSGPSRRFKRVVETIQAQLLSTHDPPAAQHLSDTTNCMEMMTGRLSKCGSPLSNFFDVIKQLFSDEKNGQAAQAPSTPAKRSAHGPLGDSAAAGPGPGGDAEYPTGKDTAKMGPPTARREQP
# [5] = target: T3, Serine/threonine-protein kinase Chk1 (Homo sapiens) (UniProt O14757); assay: Percentage CHK1 activity remaining in the presence of 2uM inhibitor
# T3 sequence (whole entry): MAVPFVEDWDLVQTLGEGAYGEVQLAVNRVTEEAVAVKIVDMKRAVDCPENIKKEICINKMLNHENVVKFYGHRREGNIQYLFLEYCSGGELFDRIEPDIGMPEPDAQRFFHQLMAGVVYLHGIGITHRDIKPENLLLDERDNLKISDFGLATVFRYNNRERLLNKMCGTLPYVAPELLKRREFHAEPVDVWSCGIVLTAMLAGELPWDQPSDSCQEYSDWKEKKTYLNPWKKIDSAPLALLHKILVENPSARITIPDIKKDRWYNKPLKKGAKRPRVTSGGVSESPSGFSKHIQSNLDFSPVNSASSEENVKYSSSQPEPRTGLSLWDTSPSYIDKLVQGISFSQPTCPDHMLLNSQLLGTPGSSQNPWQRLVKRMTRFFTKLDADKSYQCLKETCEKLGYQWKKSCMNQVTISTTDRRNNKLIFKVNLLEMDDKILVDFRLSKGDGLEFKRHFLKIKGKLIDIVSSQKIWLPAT
# [6] = target: Proto-oncogene tyrosine-protein kinase LCK (Mus musculus) (UniProt P06240); assay: Percentage Lck activity remaining in the presence of 2uM inhibitor
# Sequence of Proto-oncogene tyrosine-protein kinase LCK (Mus musculus) (P06240 2-509 limits assumed): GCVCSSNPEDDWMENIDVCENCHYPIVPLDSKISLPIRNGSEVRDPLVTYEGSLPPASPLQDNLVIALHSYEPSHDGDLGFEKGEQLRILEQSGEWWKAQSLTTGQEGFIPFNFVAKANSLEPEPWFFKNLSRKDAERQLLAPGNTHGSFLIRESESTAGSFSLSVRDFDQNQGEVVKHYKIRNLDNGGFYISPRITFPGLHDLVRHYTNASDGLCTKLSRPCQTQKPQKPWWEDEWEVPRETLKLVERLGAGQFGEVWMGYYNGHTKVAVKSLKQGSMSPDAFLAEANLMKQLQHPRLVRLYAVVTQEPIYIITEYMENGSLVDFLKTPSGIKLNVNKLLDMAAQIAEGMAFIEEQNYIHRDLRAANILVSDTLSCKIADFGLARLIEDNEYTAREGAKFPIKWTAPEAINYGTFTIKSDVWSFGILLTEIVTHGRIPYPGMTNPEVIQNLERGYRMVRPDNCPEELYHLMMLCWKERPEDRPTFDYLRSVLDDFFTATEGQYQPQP
smiles,measurement,setting,value
CC(C)[C@H](CO)Nc1nc(Nc2cccc(Cl)c2)c2ncn(C(C)C)c2n1 [PURVALANOLA],IC50,[1],30 nM (antagonist)
Cc1ccc(-c2c(C(=O)CF)n(CCCO)c3ncnc(N)c23)cc1,Activity,[2],92%
same,Activity,[3],92%
Cn1cc(C2=C(c3ccc(Cl)cc3Cl)C(=O)NC2=O)c2ccccc21,Activity,[4],83%
same,Activity,[5],87%
same,Activity,[6],77%
